Experimental data as given in patent US9695155B2, “Herbicidal substituted pyrimidinyloxy benzene compounds” (E. I. DU PONT DE NEMOURS AND COMPANY, priority 2013, dated 2017).

Legend:
arrowleaf sida = experiment: Test E postemergence; assay type: in vivo, Sida rhombifolia; conditions: Postemergence, scale 0 to 100
In short: (§1)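 Test chemicals formulated in a non-phytotoxic solvent mixture containing a surfactant were applied preemergence to seeds in silt loam soil or postemergence to plants at the 1- to 4-leaf stage in potting mix. After 14 to 21 days in a greenhouse, injury was visually rated against controls on a 0-100 scale (0 = no effect, 100 = complete control).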

Italian ryegrass = experiment: Test E postemergence; assay type: in vivo, Lolium multiflorum; conditions: Postemergence, scale 0 to 100
In short: as §1

velvetleaf = experiment: Test E preemergence; assay type: in vivo, Abutilon theophrasti; conditions: for Velvetleaf plant response rating: scale 0 to 100 (0 no effect, 100 complete control); for Plant response rating, Velvetleaf: scale 0 to 100, 0 no effect, 100 complete control
In short: as §1

hairy beggarticks = experiment: Test E postemergence; assay type: in vivo, Bidens pilosa; conditions: Postemergence, scale 0 to 100
In short: as §1

corn = experiment: Test E postemergence; assay type: in vivo, Zea mays; conditions: Postemergence, scale 0 to 100
In short: as §1

kochia = experiment: Test E preemergence; assay type: in vivo, Kochia scoparia; conditions: for Kochia plant response rating: scale 0 to 100 (0 no effect, 100 complete control); for Plant response rating, Kochia: scale 0 to 100, 0 no effect, 100 complete control
In short: as §1

surinam grass = experiment: Test E preemergence; assay type: in vivo, Brachiaria decumbens; conditions: for Surinam Grass plant response rating: scale 0 to 100 (0 no effect, 100 complete control); for Plant response rating, Surinam Grass: scale 0 to 100, 0 no effect, 100 complete control
In short: as §1

lambsquarters = experiment: Test E preemergence; assay type: in vivo, Chenopodium album; conditions: for Lambsquarters plant response rating: scale 0 to 100 (0 no effect, 100 complete control); for Plant response rating, Lambsquarters: scale 0 to 100, 0 no effect, 100 complete control
In short: as §1

giant foxtail = experiment: Test E preemergence; assay type: in vivo, Setaria faberii; conditions: for Foxtail, Giant plant response rating: scale 0 to 100 (0 no effect, 100 complete control); for Plant response rating, Foxtail, Giant: scale 0 to 100, 0 no effect, 100 complete control
In short: as §1

barnyardgrass = experiment: Test E preemergence; assay type: in vivo, Echinochloa crus-galli; conditions: for Barnyardgrass plant response rating: scale 0 to 100 (0 no effect, 100 complete control); for Plant response rating, Barnyardgrass: scale 0 to 100, 0 no effect, 100 complete control
In short: as §1

palmer pigweed = experiment: Test E postemergence; assay type: in vivo, Amaranthus palmeri; conditions: Postemergence, scale 0 to 100
In short: as §1

Brazilian crabgrass [1] = experiment: Test E preemergence; assay type: in vivo, Digitaria horizontalis; conditions: for Crabgrass, Brazil plant response rating: scale 0 to 100 (0 no effect, 100 complete control); for Plant response rating, Crabgrass, Brazil: scale 0 to 100, 0 no effect, 100 complete control
In short: as §1

Brazilian crabgrass [2] = experiment: Test E postemergence; assay type: in vivo, Digitaria horizontalis; conditions: Postemergence, scale 0 to 100
In short: as §1

green foxtail = experiment: Test E preemergence; assay type: in vivo, Setaria viridis; conditions: for Foxtail, Green plant response rating: scale 0 to 100 (0 no effect, 100 complete control); for Plant response rating, Foxtail, Green: scale 0 to 100, 0 no effect, 100 complete control
In short: as §1

fall panicum = experiment: Test E preemergence; assay type: in vivo, Panicum dichotomiflorum; conditions: for Panicum, Fall plant response rating: scale 0 to 100 (0 no effect, 100 complete control); for Plant response rating, Panicum, Fall: scale 0 to 100, 0 no effect, 100 complete control
In short: as §1

morningglory = experiment: Test E preemergence; assay type: in vivo, Ipomoea coccinea; conditions: for Morningglory plant response rating: scale 0 to 100 (0 no effect, 100 complete control); for Plant response rating, Morningglory: scale 0 to 100, 0 no effect, 100 complete control
In short: as §1

nightshade = experiment: Test E preemergence; assay type: in vivo, Solanum ptycanthum; conditions: for Nightshade plant response rating: scale 0 to 100 (0 no effect, 100 complete control); for Plant response rating, Nightshade: scale 0 to 100, 0 no effect, 100 complete control
In short: as §1

Structure (SMILES): N#Cc1cccc(Oc2ncc(Cl)cn2)c1-n1cc(Cl)cn1 [Compound 72]
- Plant response rating, Arrowleaf Sida (arrowleaf sida; 62 g ai/ha): 50
- Plant response rating, Arrowleaf Sida (arrowleaf sida; 125 g ai/ha): 75
- Plant response rating, Ryegrass, Italian (Italian ryegrass; 62 g ai/ha): 0
- Plant response rating, Ryegrass, Italian (Italian ryegrass; 125 g ai/ha): 5
- Velvetleaf plant response rating (velvetleaf; 16 g ai/ha): 0
- Velvetleaf plant response rating (velvetleaf; 31 g ai/ha): 0
- Velvetleaf plant response rating (velvetleaf; 62 g ai/ha): 40
- Plant response rating, Velvetleaf (velvetleaf; 125 g ai/ha): 65
- Plant response rating, Velvetleaf (velvetleaf; 250 g ai/ha): 100
- Plant response rating, Beggarticks (hairy beggarticks; 62 g ai/ha): 70
- Plant response rating, Beggarticks (hairy beggarticks; 125 g ai/ha): 80
- Plant response rating, Corn (corn; 62 g ai/ha): 15
- Plant response rating, Corn (corn; 125 g ai/ha): 10
- Kochia plant response rating (kochia; 16 g ai/ha): 10
- Kochia plant response rating (kochia; 31 g ai/ha): 75
- Kochia plant response rating (kochia; 62 g ai/ha): 98
- Plant response rating, Kochia (kochia; 125 g ai/ha): 100
- Plant response rating, Kochia (kochia; 250 g ai/ha): 100
- Surinam Grass plant response rating (surinam grass; 16 g ai/ha): 20
- Surinam Grass plant response rating (surinam grass; 31 g ai/ha): 20
- Surinam Grass plant response rating (surinam grass; 62 g ai/ha): 20
- Plant response rating, Surinam Grass (surinam grass; 125 g ai/ha): 10
- Plant response rating, Surinam Grass (surinam grass; 250 g ai/ha): 30
- Lambsquarters plant response rating (lambsquarters; 16 g ai/ha): 0
- Lambsquarters plant response rating (lambsquarters; 31 g ai/ha): 90
- Lambsquarters plant response rating (lambsquarters; 62 g ai/ha): 100
- Plant response rating, Lambsquarters (lambsquarters; 125 g ai/ha): 100
- Plant response rating, Lambsquarters (lambsquarters; 250 g ai/ha): 100
- Foxtail, Giant plant response rating (giant foxtail; 16 g ai/ha): 35
- Foxtail, Giant plant response rating (giant foxtail; 31 g ai/ha): 35
- Foxtail, Giant plant response rating (giant foxtail; 62 g ai/ha): 95
- Plant response rating, Foxtail, Giant (giant foxtail; 125 g ai/ha): 98
- Plant response rating, Foxtail, Giant (giant foxtail; 250 g ai/ha): 100
- Barnyardgrass plant response rating (barnyardgrass; 16 g ai/ha, preemergence): 0
- Barnyardgrass plant response rating (barnyardgrass; 31 g ai/ha, preemergence): 0
- Plant response rating, Barnyardgrass (barnyardgrass; Preemergence, 62 g ai/ha): 15
- Plant response rating, Barnyardgrass (barnyardgrass; preemergence, 125 g ai/ha): 35
- Plant response rating, Barnyardgrass (barnyardgrass; preemergence, 250 g ai/ha): 90
- Plant response rating, Pigweed, Palmer (palmer pigweed; 62 g ai/ha): 75
- Plant response rating, Pigweed, Palmer (palmer pigweed; 125 g ai/ha): 90
- Crabgrass, Brazil plant response rating (Brazilian crabgrass [1]; 16 g ai/ha): 90
- Crabgrass, Brazil plant response rating (Brazilian crabgrass [1]; 31 g ai/ha): 98
- Crabgrass, Brazil plant response rating (Brazilian crabgrass [1]; 62 g ai/ha): 100
- Plant response rating, Crabgrass, Brazil (Brazilian crabgrass [1]; 125 g ai/ha): 100
- Plant response rating, Crabgrass, Brazil (Brazilian crabgrass [1]; 250 g ai/ha): 100
- Plant response rating, Crabgrass, Brazil (Brazilian crabgrass [2]; 62 g ai/ha): 10
- Plant response rating, Crabgrass, Brazil (Brazilian crabgrass [2]; 125 g ai/ha): 20
- Foxtail, Green plant response rating (green foxtail; 16 g ai/ha): 30
- Foxtail, Green plant response rating (green foxtail; 31 g ai/ha): 30
- Foxtail, Green plant response rating (green foxtail; 62 g ai/ha): 95
- Plant response rating, Foxtail, Green (green foxtail; 125 g ai/ha): 100
- Plant response rating, Foxtail, Green (green foxtail; 250 g ai/ha): 100
- Panicum, Fall plant response rating (fall panicum; 16 g ai/ha): 0
- Panicum, Fall plant response rating (fall panicum; 31 g ai/ha): 65
- Panicum, Fall plant response rating (fall panicum; 62 g ai/ha): 98
- Plant response rating, Panicum, Fall (fall panicum; 125 g ai/ha): 100
- Plant response rating, Panicum, Fall (fall panicum; 250 g ai/ha): 100
- Morningglory plant response rating (morningglory; 16 g ai/ha): 0
- Morningglory plant response rating (morningglory; 31 g ai/ha): 0
- Morningglory plant response rating (morningglory; 62 g ai/ha): 15
- Plant response rating, Morningglory (morningglory; 125 g ai/ha): 15
- Plant response rating, Morningglory (morningglory; 250 g ai/ha): 35
- Nightshade plant response rating (nightshade; 16 g ai/ha): 0
- Nightshade plant response rating (nightshade; 31 g ai/ha): 65
- Nightshade plant response rating (nightshade; 62 g ai/ha): 100
- Plant response rating, Nightshade (nightshade; 125 g ai/ha): 98
- Plant response rating, Nightshade (nightshade; 250 g ai/ha): 100
